The values that follow come from patent publication US10988466B2, “Heterocyclic derivatives useful as SHP2 inhibitors” (Jacobio Pharmaceuticals Co., Ltd., priority 2017, dated 2021).
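Further: compounds preincubated 30 min at room temperature in the assay mixture, activity referenced to a 0.5% (v/v) DMSO control taken as 100%, run in triplicate.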

This assay has as its target T1, SHP2 (Homo sapiens, UniProt Q06124).
T1 sequence (Q06124 1-593): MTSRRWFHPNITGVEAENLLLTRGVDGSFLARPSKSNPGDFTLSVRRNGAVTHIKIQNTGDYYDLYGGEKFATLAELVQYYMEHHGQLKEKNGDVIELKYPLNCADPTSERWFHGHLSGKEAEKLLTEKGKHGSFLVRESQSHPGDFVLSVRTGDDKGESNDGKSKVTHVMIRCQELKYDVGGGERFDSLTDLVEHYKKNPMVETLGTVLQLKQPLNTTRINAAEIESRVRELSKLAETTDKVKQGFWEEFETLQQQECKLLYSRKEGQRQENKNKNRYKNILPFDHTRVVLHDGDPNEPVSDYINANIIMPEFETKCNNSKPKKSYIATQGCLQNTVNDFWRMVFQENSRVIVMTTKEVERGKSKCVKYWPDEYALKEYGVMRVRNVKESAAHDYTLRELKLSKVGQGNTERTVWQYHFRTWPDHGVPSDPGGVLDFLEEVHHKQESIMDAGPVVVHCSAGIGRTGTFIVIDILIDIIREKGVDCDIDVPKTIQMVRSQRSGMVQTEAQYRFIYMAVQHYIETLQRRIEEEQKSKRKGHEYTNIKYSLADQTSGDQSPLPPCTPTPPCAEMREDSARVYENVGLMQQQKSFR
Nature of the assay: biochemical. Conditions: read-out: SHP2 inhibition (%)@0.1 μM.
By inhibition is commonly meant how much of the control response was suppressed. Take `N[C@@H]1c2cccnc2CC12CCN(c1cnc(Sc3cc(F)ncc3Cl)cn1)CC2` [Example 101, (S)-1′-(5-((5-chloro-2-fluoro-pyridin-4-yl)thio)pyrazin-2-yl)-5,7-dihydrospiro[cyclopenta [b]pyridine-6,4′-piperidin]-5-amine]: the inhibition at 0.1 µM came to 83%.

`Nc1nc(N2CCC3(CC2)Cc2ncccc2[C@H]3N)cnc1Sc1cc(F)ncc1Cl` [Example 102, (S)-1′-(6-amino-5-((5-chloro-2-fluoropyridin-4-yl)thio)pyrazin-2-yl)-5,7-dihydro-spiro[cyclopenta[b]pyridine-6,4′-piperidin]-5-amine]: the inhibition at 0.1 µM was determined as 81%. Under `CC(=O)N1CC(F)(F)c2c(Sc3ncc(N4CCC5(CC4)Cc4ncccc4[C@H]5N)nc3N)cccc21` [Example 103, (S)-1-(4-((3-amino-5-(5-amino-5,7-dihydrospiro [cyclopenta[b]pyridine-6,4′-piperidin]-1′-yl)pyrazin-2-yl)thio)-3,3-difluoroindolin-1-yl) ethan-1-one] stands 76%.

With `N[C@@H]1c2cccnc2CC12CCN(c1cnc(Sc3cnccc3Cl)cn1)CC2` [Example 106, (S)-1′-(5-((4-chloropyridin-3-yl)thio)pyrazin-2-yl)-5,7-dihydrospiro [cyclopenta[b]pyridine-6,4′-piperidin]-5-amine], the inhibition at 0.1 µM came to 82%. Consider `Nc1nc(N2CCC3(CC2)Cc2ncccc2[C@H]3N)cnc1Sc1cnccc1Cl` [Example 107, (S)-1′-(6-amino-5-((4-chloropyridin-3-yl)thio)pyrazin-2-yl)-5,7-dihydrospiro[cyclo-penta[b]pyridine-6,4′-piperidin]-5-amine], for which the inhibition at 0.1 µM was found to be 77%. Under `Nc1cnccc1Sc1cnc(N2CCC3(CC2)Cc2ncccc2[C@H]3N)cn1` [Example 108, (S)-1′-(5-((3-amino-pyridin-4-yl)thio)pyrazin-2-yl)-5,7-dihydrospiro [cyclopenta[b]pyridine-6,4′-piperidin]-5-amine] stands 71%; under `Nc1cnccc1Sc1ncc(N2CCC3(CC2)Cc2ncccc2[C@H]3N)nc1N` [Example 109, (S)-1′-(6-amino-5-((3-aminopyridin-4-yl)thio)pyrazin-2-yl)-5,7-dihydrospiro[cyclo-penta[b]pyridine-6,4′-piperidin]-5-amine], 71%; under `N[C@@H]1c2cccnc2CC12CCN(c1cnc(Sc3c(Cl)cncc3Cl)cn1)CC2` [Example 110, (S)-1′-(5-((3,5-dichloropyridin-4-yl)thio)pyrazin-2-yl)-5,7-dihydrospiro [cyclopenta[b]pyridine-6,4′-piperidin]-5-amine], 61%. Take `Nc1nc(N2CCC3(CC2)Cc2ncccc2[C@H]3N)cnc1Sc1c(Cl)cncc1Cl` [Example 111, (S)-1′-(6-amino-5-((3,5-dichloro-pyridin-4-yl)thio)pyrazin-2-yl)-5,7-dihydrospiro [cyclopenta[b]pyridine-6,4′-piperidin]-5-amine]: the inhibition at 0.1 µM was determined as 82%. The figure for `Nc1cc(Sc2ncc(N3CCC4(CC3)Cc3ncccc3[C@H]4N)nc2N)c(Cl)cn1` [Example 113, (S)-1′-(6-amino-5-((2-amino-5-chloropyridin-4-yl)thio)pyrazin-2-yl)-5,7-dihydrospiro [cyclopenta[b]pyridine-6,4′-piperidin]-5-amine] is 80%. The figure for `Nc1nc(N2CCC3(CC2)Cc2ncccc2[C@H]3N)cnc1Sc1cccnc1C(F)(F)F` [Example 114, (S)-1′-(6-amino-5-((2-(trifluoro-methyl)pyridin-3-yl)thio)pyrazin-2-yl)-5,7-dihydrospiro [cyclopenta [b]pyridine-6,4′-piperidin]-5-amine] is 96%; for `N[C@@H]1c2cccnc2CC12CCN(c1cnc(Sc3ccnc(F)c3Cl)cn1)CC2` [Example 115, (S)-1′-(5-((3-chloro-2-fluoropyridin-4-yl)thio)pyrazin-2-yl)-5,7-dihydrospiro [cyclopenta[b]pyridine-6,4′-piperidin]-5-amine] it is 86%. Under `Nc1nc(N2CCC3(CC2)Cc2ncccc2[C@H]3N)cnc1Sc1ccnc(F)c1Cl` [Example 116, (S)-1′-(6-amino-5-((3-chloro-2-fluoropyridin-4-yl)thio)pyrazin-2-yl)-5,7-dihydrospiro [cyclopenta[b]pyridine-6,4′-piperidin]-5-amine] stands 79%; under `N#Cc1ncccc1Sc1cnc(N2CCC3(CC2)Cc2ncccc2[C@H]3N)cn1` [Example 117, (S)-3-((5-(5-amino-5,7-dihydrospiro [cyclopenta[b]pyridine-6,4′-piperidin]-1′-yl)pyrazin-2-yl)thio) picolinonitrile], 81%; under `N#Cc1ncccc1Sc1ncc(N2CCC3(CC2)Cc2ncccc2[C@H]3N)nc1N` [Example 118, (S)-3-((3-amino-5-(5-amino-5,7-dihydrospiro [cyclopenta[b]pyridine-6,4′-piperidin]-1′-yl)pyrazin-2-yl)thio)picolinonitrile], 81%. Consider `N[C@@H]1c2cccnc2CC12CCN(c1cnc(Sc3cc(Cl)ncc3C(F)(F)F)cn1)CC2` [Example 119, (S)-1′-(5-((2-chloro-5-(trifluoro-methyl)pyridin-4-yl)thio)pyrazin-2-yl)-5,7-dihydro-spiro[cyclopenta [b]pyridine-6,4′-piperidin]-5-amine], for which the inhibition at 0.1 µM worked out at 61%. The figure for `Nc1nc(N2CCC3(CC2)Cc2ncccc2[C@H]3N)cnc1Sc1cc(Cl)ncc1C(F)(F)F` [Example 120, (S)-1′-(6-amino-5-((2-chloro-5-(trifluoromethyl)pyridin-4-yl)thio)pyrazin-2-yl)-5,7-dihydrospiro [cyclopenta[b]pyridine-6,4′-piperidin]-5-amine] is 87%. Regarding `Nc1nc(N2CCC3(CC2)Cc2ccccc2C3N)cnc1Sc1ccnc(N)c1Cl` (stereo not shown) [Example 124, 1′-(6-amino-5-((2-amino-3-chloropyridin-4-yl)thio)pyrazin-2-yl)-1,3-dihydrospiro [indene-2,4′-piperidin]-1-amine], the inhibition at 0.1 µM was determined as 84%.

`Nc1nccc(Sc2cnc(N3CCC4(CC3)Cc3ccccc3C4N)cn2)c1Cl` (stereo not shown) [Example 125, 1′-(5-((2-amino-3-chloropyridin-4-yl)thio)pyrazin-2-yl)-1,3-dihydrospiro [indene-2,4′-piperidin]-1-amine]: the inhibition at 0.1 µM is 86%.

For `Nc1cccc(Sc2ncc(N3CCC4(CC3)Cc3ncccc3C4N)nc2N)c1Cl` (stereo not shown) [Example 126, 1′-(6-amino-5-((3-amino-2-chlorophenyl)thio)pyrazin-2-yl)-5,7-dihydrospiro[cyclo-penta[b]pyridine-6,4′-piperidin]-5-amine], the inhibition at 0.1 µM is 81%. The figure for `Nc1nc(N2CCC3(CC2)Cc2cnccc2C3N)cnc1Sc1ccnc(N)c1Cl` (stereo not shown) [Example 127, 1′-(6-amino-5-((2-amino-3-chloropyridin-4-yl)thio)pyrazin-2-yl)-5,7-dihydrospiro [cyclopenta[c]pyridine-6,4′-piperidin]-5-amine] is 83%. The figure for `Nc1cccc(Sc2cnc(N3CCC4(CC3)Cc3ncccc3C4N)cn2)c1Cl` (stereo not shown) [Example 128, 1′-(5-((3-amino-2-chlorophenyl)thio)pyrazin-2-yl)-5,7-dihydrospiro [cyclopenta[b]pyridine-6,4′-piperidin]-5-amine] is 84%. The figure for `Nc1nc(N2CCC3(CC2)Cc2cc(Br)ccc2C3N)cnc1Sc1ccnc(N)c1Cl` (stereo not shown) [Example 129, 1′-(6-amino-5-((2-amino-3-chloropyridin-4-yl)thio)pyrazin-2-yl)-5-bromo-1,3-dihydro-spiro[indene-2,4′-piperidin]-1-amine] is 74%; for `Nc1nc(N2CCC3(CC2)Cc2sc(Cl)nc2C3N)cnc1Sc1ccnc(N)c1Cl` (stereo not shown) [Example 130, 1′-(6-amino-5-((2-amino-3-chloropyridin-4-yl)thio)pyrazin-2-yl)-2-chloro-4,6-dihydro-spiro[cyclopenta [d]thiazole-5,4′-piperidin]-4-amine] it is 94%. With `Nc1nccc(Sc2cnc(N3CCC4(CC3)Cc3sc(Cl)nc3C4N)cn2)c1Cl` (stereo not shown) [Example 131, 1′-(5-((2-amino-3-chloropyridin-4-yl)thio)pyrazin-2-yl)-2-chloro-4,6-dihydrospiro [cyclopenta[d]thiazole-5,4′-piperidin]-4-amine], the inhibition at 0.1 µM worked out at 83%. The figure for `Nc1nccc(Sc2cnc(N3CCC4(CC3)c3ccccc3CC4N)cn2)c1Cl` (stereo not shown) [Example 132, 1′-(5-((2-amino-3-chloropyridin-4-yl)thio)pyrazin-2-yl)-2,3-dihydrospiro[indene-1,4′-piperidin]-2-amine] is 78%. The figure for `N[C@@H]1c2ccccc2CC12CCN(c1cnc(Sc3ccnc(O)c3Cl)cn1)CC2` [Example 133, (S)-4-((5-(1-amino-1,3-dihydrospiro[indene-2,4′-piperidin]-1′-yl)pyrazin-2-yl)thio)-3-chloro pyridin-2-ol] is 76%; for `Nc1nc(N2CCC3(CC2)Cc2ccccc2[C@H]3N)cnc1Sc1ccnc(O)c1Cl` [Example 134, (S)-4-((3-amino-5-(1-amino-1,3-dihydrospiro[indene-2,4′-piperidin]-1′-yl)pyrazin-2-yl)thio)-3-chloropyridin-2-ol] it is 78%.
